From paper PMC3263372 (Chembiochem, 2011)
“Also recorded” adds a separate entry of the source. Square brackets hold non-standard residues; d marks the D form. Peptide text beside a SMILES is read from it. β3hW = N[C@H](CC(=O)O)Cc1c[nH]c2ccccc12; β3hR = N=C(N)NCCC[C@H](N)CC(=O)O; β3hE = N[C@@H](CCC(=O)O)CC(=O)O; β3hQ = NC(=O)CC[C@H](N)CC(=O)O; β3hD = NC(CC(=O)O)CC(=O)O; β3hA = C[C@H](N)CC(=O)O

Experiments:
Bcl-w = molecular target: T1, Bcl-w (Homo sapiens, UniProt Q92843, A128E/C29S); test: Solution competition SPR; format: binding
T1 sequence (Q92843 1-164 C29S/A128E limits assumed): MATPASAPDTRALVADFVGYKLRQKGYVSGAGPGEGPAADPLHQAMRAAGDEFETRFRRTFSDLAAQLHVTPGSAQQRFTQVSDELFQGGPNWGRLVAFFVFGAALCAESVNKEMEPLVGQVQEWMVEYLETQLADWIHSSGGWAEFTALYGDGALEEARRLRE

Bcl-xL [1] = molecular target: T2, Bcl-xL (Homo sapiens, UniProt Q07817); test: Solution competition SPR; format: binding; settings: for affinity for Bcl-xL: SPR, in words
T2 sequence (Q07817 1-209 limits assumed): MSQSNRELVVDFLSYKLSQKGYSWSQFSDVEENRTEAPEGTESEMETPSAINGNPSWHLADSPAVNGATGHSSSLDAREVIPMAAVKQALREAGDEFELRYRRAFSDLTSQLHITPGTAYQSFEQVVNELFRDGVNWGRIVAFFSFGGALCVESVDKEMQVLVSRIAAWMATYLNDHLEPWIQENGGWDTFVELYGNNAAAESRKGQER

Mcl-1 = Mcl-1 (Homo sapiens, UniProt Q07820, A193S/E173D/K208R/M199L/R201E/S202A/S206G/T196S/T205A); test: Solution competition SPR; format: binding, human/mouse chimeric; settings: for affinity for Mcl-1: SPR, in words
Chain of Mcl-1 (Q07820 171-327 E173D/A193S/T196S/M199L/R201E/S202A/T205A/S206G/K208R limits assumed): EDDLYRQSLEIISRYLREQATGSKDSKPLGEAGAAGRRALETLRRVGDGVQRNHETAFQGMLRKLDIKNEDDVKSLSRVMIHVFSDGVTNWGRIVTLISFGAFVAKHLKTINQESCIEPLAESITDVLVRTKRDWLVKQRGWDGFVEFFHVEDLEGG

Bcl-2 = Bcl-2 (Homo sapiens, UniProt P10415); test: Solution competition SPR; format: binding
Chain of Bcl-2 (P10415 1-217 limits assumed, species assumed): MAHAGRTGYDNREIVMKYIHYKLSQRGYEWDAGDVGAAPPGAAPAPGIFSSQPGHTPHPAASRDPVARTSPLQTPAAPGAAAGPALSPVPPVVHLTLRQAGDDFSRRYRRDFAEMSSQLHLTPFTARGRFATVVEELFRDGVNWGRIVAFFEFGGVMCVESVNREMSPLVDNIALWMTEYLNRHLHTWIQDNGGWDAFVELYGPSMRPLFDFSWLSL

pro-survival proteins = settings: ref [37]; cited from earlier work
[2] = ref [14]; cited from earlier work
Bcl-xL [3] = molecular target: T2, Bcl-xL; settings: preliminary studies; ref [14]; cited from earlier work

| Structure (SMILES) | IC50 (Bcl-w) [µM] | IC50 (Bcl-xL [1]) [µM] | IC50 (Mcl-1) [µM] | IC50 (Bcl-2) [µM] | binding to all pro-survival proteins (pro-survival proteins) | resistance to proteolytic degradation [2] | affinity for Bcl-xL (Bcl-xL [1]) | binding to Bcl-xL (Bcl-xL [3]) | affinity for Mcl-1 (Mcl-1) |
| --- | --- | --- | --- | --- | --- | --- | --- | --- | --- |
| CC[C@H](C)[C@H](NC(=O)[C@H](CCC(=O)O)NC(=O)[C@H](CCCNC(=N)N)NC(=O)[C@H](C)NC(=O)[C@H](Cc1c[nH]c2ccccc12)NC(=O)[C@H](CCC(N)=O)NC(=O)[C@H](CCC(=O)O)NC(=O)[C@H](CCC(=O)O)NC(C)=O)C(=O)NCC(=O)N[C@@H](C)C(=O)N[C@@H](CCC(N)=O)C(=O)N[C@@H](CC(C)C)C(=O)N[C@@H](CCCNC(=N)N)C(=O)N[C@@H](CCCNC(=N)N)C(=O)N[C@@H](CCSC)C(=O)N[C@@H](C)C(=O)N[C@@H](CC(=O)O)C(=O)N[C@@H](CC(=O)O)C(=O)N[C@@H](CC(C)C)C(=O)N[C@@H](CC(N)=O)C(=O)N[C@@H](C)C(=O)N[C@@H](CCC(N)=O)C(=O)N[C@@H](Cc1ccc(O)cc1)C(=O)N[C@@H](CCC(=O)O)C(=O)N[C@@H](CCCNC(=N)N)C(=O)N[C@@H](CCCNC(=N)N)C(N)=O [α-peptide 1] | 0.013 | 0.018 | 0.01 | 0.005 | promiscuous binder capable of engaging all pro-survival proteins with high affinity |  |  |  |  |
| CC[C@H](C)[C@H](NC(=O)C[C@H](CCC(=O)O)NC(=O)[C@H](CCCNC(=N)N)NC(=O)[C@H](C)NC(=O)C[C@H](Cc1c[nH]c2ccccc12)NC(=O)[C@H](CCC(N)=O)NC(=O)[C@H](CCC(=O)O)NC(=O)[C@H](CCC(=O)O)NC(C)=O)C(=O)NCC(=O)N[C@@H](C)C(=O)N[C@@H](CCC(N)=O)CC(=O)N[C@@H](CC(C)C)C(=O)N[C@@H](CCCNC(=N)N)C(=O)N[C@@H](CCCNC(=N)N)CC(=O)N[C@@H](CCSC)C(=O)N[C@@H](C)C(=O)N[C@@H](CC(=O)O)C(=O)N[C@@H](CC(=O)O)CC(=O)N[C@@H](CC(C)C)C(=O)N[C@@H](CC(N)=O)C(=O)N[C@@H](C)CC(=O)N[C@@H](CCC(N)=O)C(=O)N[C@@H](Cc1ccc(O)cc1)C(=O)N[C@@H](CCC(=O)O)C(=O)N[C@@H](CCCNC(=N)N)CC(=O)N[C@@H](CCCNC(=N)N)C(N)=O [α/β-peptide 2] |  |  |  |  |  | significant resistance to proteolytic degradation | strong binding; also recorded: high affinity | bound tightly | does not bind tightly to Mcl-1; also recorded: low affinity; also recorded: relatively weak binding |
| CC[C@H](C)[C@H](NC(=O)C[C@H](CCC(=O)O)NC(=O)[C@H](CCCNC(=N)N)NC(=O)[C@H](C)NC(=O)C[C@H](Cc1c[nH]c2ccccc12)NC(C)=O)C(=O)NCC(=O)N[C@@H](C)C(=O)N[C@@H](CCC(N)=O)CC(=O)N[C@@H](CC(C)C)C(=O)N[C@@H](CCCNC(=N)N)C(=O)N[C@@H](CCCNC(=N)N)CC(=O)N[C@@H](CCSC)C(=O)N[C@@H](C)C(=O)N[C@@H](CC(=O)O)C(=O)N[C@@H](CC(=O)O)CC(=O)N[C@@H](CC(C)C)C(=O)N[C@@H](CC(N)=O)C(=O)N[C@@H](C)CC(=O)N[C@@H](CCC(N)=O)C(=O)N[C@@H](Cc1ccc(O)cc1)C(=O)N[C@@H](CCC(=O)O)C(N)=O [α/β-peptide 3] (Ac-[β3hW]AR[β3hE]IGA[β3hQ]LR[β3hR]MAD[β3hD]LN[β3hA]QYE-NH2; N-terminus assumed) |  |  |  |  |  |  | high affinity |  | low affinity |
